ChEMBL document CHEMBL3044631, “Synthesis of 2-[4,5-dimethyl-1-(phenylamino)-1H-imidazol-2-ylthio]-N-(thiazole-2-yl)acetamide derivatives and their anticancer activities” (2013)

Assays:
Assay type in all cases: functional
CCRF-CEM = assay: Anticancer activity against Homo sapiens (human) CCRF-CEM cells assessed as cell growth promotion at 10 uM after 48 hr by SRB assay
OVCAR-3 = assay: Anticancer activity against Homo sapiens (human) OVCAR3 cells after 48 hr by SRB assay; conditions: OVCAR-3, 48 h
MDA-MB-435 = assay: Anticancer activity against Homo sapiens (human) MDA-MB-435 cells after 48 hr by SRB assay; conditions: MDA-MB-435, 48 h
COLO 205 = assay: Anticancer activity against Homo sapiens (human) COLO205 cells after 48 hr by SRB assay; conditions: COLO 205, 48 h
M14 = assay: Anticancer activity against Homo sapiens (human) M14 cells after 48 hr by SRB assay; conditions: M14, 48 h
HOP-62 = assay: Anticancer activity against Homo sapiens (human) HOP62 cells after 48 hr by SRB assay; conditions: HOP-62, 48 h
NCI/ADR-RES = assay: Anticancer activity against Homo sapiens (human) NCI/ADR-RES cells after 48 hr by SRB assay
TK-10 = assay: Anticancer activity against Homo sapiens (human) TK10 cells after 48 hr by SRB assay; conditions: TK-10, 48 h
HL-60(TB) = assay: Anticancer activity against Homo sapiens (human) HL-60(TB) cells after 48 hr by SRB assay; conditions: HL-60, 48 h
SF-295 = assay: Anticancer activity against Homo sapiens (human) SF295 cells after 48 hr by SRB assay; conditions: SF-295, 48 h
SF-268 = assay: Anticancer activity against Homo sapiens (human) SF268 cells after 48 hr by SRB assay; conditions: SF-268, 48 h
NCI-H322M = assay: Anticancer activity against Homo sapiens (human) NCI-H322M cells after 48 hr by SRB assay
SK-MEL-2 = assay: Anticancer activity against Homo sapiens (human) SK-MEL-2 cells after 48 hr by SRB assay; conditions: SK-MEL-2, 48 h
ACHN = assay: Anticancer activity against Homo sapiens (human) ACHN cells after 48 hr by SRB assay
DU-145 = assay: Anticancer activity against Homo sapiens (human) DU145 cells after 48 hr by SRB assay; conditions: DU-145, 48 h
OVCAR-4 = assay: Anticancer activity against Homo sapiens (human) OVCAR4 cells after 48 hr by SRB assay; conditions: OVCAR-4, 48 h
MDA-MB-231 = assay: Anticancer activity against Homo sapiens (human) MDA-MB-231/ATCC cells after 48 hr by SRB assay; conditions: MDA-MB-231, 48 h
OVCAR-5 = assay: Anticancer activity against Homo sapiens (human) OVCAR5 cells after 48 hr by SRB assay; conditions: OVCAR-5, 48 h
IGROV-1 = assay: Anticancer activity against Homo sapiens (human) IGROV1 cells after 48 hr by SRB assay; conditions: IGROV-1, 48 h
NCI-H522 = assay: Anticancer activity against Homo sapiens (human) NCI-H522 cells after 48 hr by SRB assay; conditions: NCI-H522, 48 h
MOLT-4 = assay: Anticancer activity against Homo sapiens (human) MOLT4 cells after 48 hr by SRB assay; conditions: MOLT-4, 48 h
KM12 = assay: Anticancer activity against Homo sapiens (human) KM12 cells after 48 hr by SRB assay; conditions: KM12, 48 h
HCT-15 = assay: Anticancer activity against Homo sapiens (human) HCT15 cells after 48 hr by SRB assay; conditions: HCT-15, 48 h
MDA-MB-468 = assay: Anticancer activity against Homo sapiens (human) MDA-MB-468 cells after 48 hr by SRB assay; conditions: MDA-MB-468, 48 h
CAKI-1 = assay: Anticancer activity against Homo sapiens (human) CAKI-1 cells after 48 hr by SRB assay; conditions: CAKI-1, 48 h
SK-MEL-5 = assay: Anticancer activity against Homo sapiens (human) SK-MEL-5 cells after 48 hr by SRB assay; conditions: SK-MEL-5, 48 h
T47D = assay: Anticancer activity against Homo sapiens (human) T47D cells after 48 hr by SRB assay
Hs-578T = assay: Anticancer activity against Homo sapiens (human) Hs 578T cells after 48 hr by SRB assay
NCI-H460 = assay: Anticancer activity against Homo sapiens (human) NCI-H460 cells after 48 hr by SRB assay; conditions: NCI-H460, 48 h
HT-29 = assay: Anticancer activity against Homo sapiens (human) HT-29 cells after 48 hr by SRB assay; conditions: HT-29, 48 h
U-251 = assay: Anticancer activity against Homo sapiens (human) U251 cells after 48 hr by SRB assay; conditions: U-251, 48 h
[1] = read-out: LC50 (the source's name)

## COc1ccc(Nn2c(SCC(=O)Nc3nccs3)nc(C)c2C)cc1
CCRF-CEM
  Activity: 100.87%

## Cc1nc(SCC(=O)Nc2nc(-c3ccc(Cl)cc3)cs2)n(Nc2ccccc2)c1C
OVCAR-3
  GI50: 3 µM
  LC50 (50% lethal concentration): 36.2 µM
  TGI: 12.1 µM
MDA-MB-435
  GI50: 3.25 µM
  LC50 (concentration killing 50% of cells): > 100 µM
  TGI: 21.8 µM
COLO 205
  GI50: 4.13 µM
  TGI: 14.5 µM
COLO 205; [1]
  CC50: 49.8 µM
M14
  GI50: 3.69 µM
  LC50: 51.2 µM
  TGI: 16 µM
HOP-62
  GI50: 3.06 µM
  LC50: 31.7 µM
  TGI: 9.63 µM
NCI/ADR-RES
  GI50: 2.6 µM
  LC50: 69.9 µM
  TGI: 7.18 µM
TK-10
  GI50: 3.65 µM
  LC50 (50% lethal concentration): 40.7 µM
  TGI: 13.8 µM
HL-60(TB)
  GI50: 2.99 µM
  TGI: > 100 µM
HL-60(TB); [1]
  CC50: > 100 µM
SF-295
  GI50: 2.29 µM
  LC50: > 100 µM
  TGI: 16.5 µM
SF-268
  GI50: 4.8 µM
  LC50: 58.8 µM
  TGI: 20.1 µM
NCI-H322M
  GI50: 4.17 µM
  TGI: 22.9 µM
NCI-H322M; [1]
  CC50: > 100 µM
SK-MEL-2
  GI50: 10.1 µM
  LC50 (concentration killing 50% of cells): 75.5 µM
  TGI: 27.6 µM
ACHN
  GI50: 3.67 µM
  LC50 (concentration killing 50% of cells): 51.5 µM
  TGI: 14.1 µM
DU-145
  GI50: 5.64 µM
  LC50 (concentration killing 50% of cells): 45.4 µM
  TGI: 18.7 µM
OVCAR-4
  GI50: 4.6 µM
  LC50 (concentration killing 50% of starting cells): > 100 µM
  TGI: 22.1 µM
MDA-MB-231
  GI50: 3.01 µM
  TGI: 15.2 µM
MDA-MB-231; [1]
  CC50: 57.8 µM
OVCAR-5
  GI50: 2.65 µM
  LC50: 54.2 µM
  TGI: 13.5 µM
IGROV-1
  GI50: 3.36 µM
  LC50 (concentration killing 50% of cells): > 100 µM
  TGI: 20.6 µM
NCI-H522
  GI50: 2.54 µM
  LC50 (50% lethal concentration): 66.5 µM
  TGI: 13.7 µM
MOLT-4
  GI50: 2.51 µM
  LC50 (50% lethal concentration): > 100 µM
  TGI: 9.94 µM
KM12
  GI50: 2.95 µM
  LC50 (concentration killing 50% of cells): 41.4 µM
  TGI: 14 µM
HCT-15
  GI50: 5.74 µM
  TGI: 23.3 µM
HCT-15; [1]
  CC50: 76.9 µM
MDA-MB-468
  GI50: 1.45 µM
  LC50: 40.4 µM
  TGI: 6.27 µM
CAKI-1
  GI50: 3.93 µM
  LC50 (concentration killing 50% of cells): > 100 µM
  TGI: 22.6 µM
SK-MEL-5
  GI50: 2.24 µM
  LC50 (concentration killing 50% of cells): 25.8 µM
  TGI: 6.31 µM
T47D
  GI50: 1.4 µM
  TGI: 5.24 µM
T47D; [1]
  CC50: 34.6 µM
Hs-578T
  GI50: 3.42 µM
  TGI: 21.6 µM
Hs-578T; [1]
  CC50: > 100 µM
NCI-H460
  GI50: 2.89 µM
  LC50: 82.1 µM
  TGI: 11 µM
HT-29
  GI50: 3.78 µM
  LC50: 49.5 µM
  TGI: 15.4 µM
U-251
  GI50: 3.13 µM
  LC50 (lethal concentration, 50% net cell kill): 41.4 µM
  TGI: 13 µM

## Cc1nc(SCC(=O)Nc2nccs2)n(Nc2ccc(Cl)cc2)c1C
CCRF-CEM
  Activity: 99.59%
